Values of other authors as cited in patent publication US20080214876A1, “Process for Preparation of Pharmaceutically Pure Anhydrous Calcipotriol” (INSTYTUT FARMACEUTYCZNY, priority 2004, published 2008).

How the values were obtained:
calcium metabolism = conditions: rats; relative to calcitriol; Binderup, Bramm, Biochem. Pharmacol. 37, 889 (1988)
[1] = pharmaceutical formulations
epidermal keratinocytes = conditions: literature: Castelijins et al., Acta Derm. Venereol. 79, 111 (1999)

weaker effect on calcium metabolism compared to calcitriol (calcium metabolism)	stability in some solutions [1]	Structure (SMILES)	activity in inhibiting undesirable proliferation of epidermal keratinocytes (epidermal keratinocytes)
100-200 fold	poor stability	C=C1/C(=C\C=C2/CCC[C@]3(C)[C@@H]([C@H](C)/C=C/[C@@H](O)C4CC4)CC[C@@H]23)C[C@@H](O)C[C@@H]1O [calcipotriol, (1α,3β3,5Z,7E,22E,24S)-24-cyclopropyl-9,10-secochola-5,7,10(19),22-tetraene-1,3,24-triol]	strong activity
		C=C1/C(=C\C=C2/CCC[C@]3(C)[C@@H]([C@H](C)CCCC(C)(C)O)CC[C@@H]23)C[C@@H](O)C[C@@H]1O [calcitriol, 1,25-dihydroxycholecalciferol]	strong activity
		C=C1/C(=C\C=C2/CCC[C@]3(C)[C@@H]([C@H](C)CC[C@@H](O)C(C)C)CC[C@@H]23)C[C@@H](O)C[C@@H]1O [tacalcitol, 1α,24R-dihydroxycholecalciferol]	strong activity
